Test [1] deals with T1, FSH receptor (Homo sapiens, UniProt P23945).
T1 sequence (P23945 18-695): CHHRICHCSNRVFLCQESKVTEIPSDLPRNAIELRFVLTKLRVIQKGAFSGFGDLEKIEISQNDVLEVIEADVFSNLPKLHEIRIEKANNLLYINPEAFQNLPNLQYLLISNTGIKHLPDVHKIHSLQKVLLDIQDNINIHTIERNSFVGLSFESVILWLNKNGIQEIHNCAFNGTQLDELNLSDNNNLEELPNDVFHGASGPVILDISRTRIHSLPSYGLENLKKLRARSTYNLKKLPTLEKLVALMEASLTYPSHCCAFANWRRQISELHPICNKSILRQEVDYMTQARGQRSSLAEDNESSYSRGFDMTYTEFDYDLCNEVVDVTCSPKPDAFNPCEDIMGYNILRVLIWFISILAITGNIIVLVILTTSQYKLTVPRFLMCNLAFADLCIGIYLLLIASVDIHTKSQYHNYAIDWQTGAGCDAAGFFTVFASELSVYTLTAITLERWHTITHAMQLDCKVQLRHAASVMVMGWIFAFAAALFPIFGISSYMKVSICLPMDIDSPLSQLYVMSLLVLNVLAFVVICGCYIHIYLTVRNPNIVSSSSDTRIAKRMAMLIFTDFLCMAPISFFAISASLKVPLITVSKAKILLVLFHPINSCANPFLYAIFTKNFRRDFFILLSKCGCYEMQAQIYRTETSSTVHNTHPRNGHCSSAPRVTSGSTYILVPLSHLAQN
Description: In Vitro Bio-assay of Agonists and Antagonists to the FSH Receptor (cAMP accumulation in CHO-3D2 cells). It is filed as cell-based. On the set-up: expressed in transfected cells; host or cells: CHO-3D2 cells. As to the method:
Preparation of CHO-3D2 Cells; CHO-3D2 cells were plated into 96-well Nunc tissue culture plates at a density of 30,000 cells/well in DMEM/F12 medium (Gibco/BRL, Grand Island, N.Y.) supplemented with 5% Fetal Bovine Serum (Hyclone, Fetal Clone II), 2 mM L-glutamine and penicillin/streptomycin (100 U/mL).
The plate was split in half to test a single compound in both agonist and antagonist mode on the same plate.
For agonist mode, compounds were tested using 5 different concentrations in a dose-response paradigm using one column as a control (challenge medium alone) in agonist mode.
The 96-well format allowed for the capability to test 4 columns of compound, using one of the remaining columns for negative control (challenge medium alone) and the other remaining column for ampositive control (ED20 of FSH alone).
The doses chosen to test each compound were extrapolated from the initial screening process (receptor binding data).
Data were analyzed statistically by analysis of variance and significant differences between treatments and control determined by Dunnett's test. In antagonist mode, a Duncan's test was used.
Reference Compounds: Test compounds were compared to the effect of purified or recombinant human FSH.
A general note: Changes in cAMP serve as a functional read-out for many G protein-coupled receptors.

The target of test [2] is T1, FSH receptor. The test can be described thus: FSH Receptor Radioligand Membrane Binding Assay ([125I]hFSH, CHO cell membranes). The note with it: for inhibition at 10 µM: read-out: % Inhibition at 10 μM conc.; for inhibition at 100 µM: read-out: % Inhibition at 100 μM conc. On the set-up: expressed in transfected cells; membrane homogenate. As to the method:
FSH Receptor Radioligand Membrane Binding Assay
Membrane Source: Chinese hamster ovarian cells stably transfected with the human FSH receptor were cultured (Ultra CHO medium containing 1% fetal bovine serum and 200 μg/mL G418) in and harvested. Cells were collected by centrifugation and resulting cell pellets were frozen and stored at -70° C.
Membrane Receptor Preparation: Frozen cell pellets were weighed and resuspended in binding buffer to a final concentration of 30 mg wet weight/mL. Cell suspension for each pellet was homogenized using a Tempest homogenizer (setting=1; 5 strokes; VirTis, Gardiner, N.Y.). Cell homogenates were pooled and 35 mL aliquots were transferred to 50-mL polypropylene copolymer centrifuge tubes (Nalgene cat. #3110-0500). Tubes were spun at 12,000 rpm (SS34 rotor) for 12 min at 4° C. Resulting supernatant fractions were discarded and pellets were stored at -70° C. until use. On the day of the assay, 35 mL binding buffer was added to each tube (35 mL membrane suspension was sufficient for three 96-well plates). The membrane pellet was dispersed by trituration using a pipet. The resulting suspension was homogenized using a Tempest homogenizer (3 strokes at setting=1).
Receptor Binding Assay: Membrane homogenate (100 μl) was added to each well of a 96-well microtiter plate (Falcon # 3077). All reactions were tested in triplicate. Test compound solutions (50 μl) were added to the designated wells. Total bound counts were determined by adding 50 μl binding buffer containing 4% DMSO to the designated wells. […] Plates were pre-incubated for 15 min at room temperature on shaking platform (setting=3). After preincubation [^125 I]FSH (50 μl) was added to each well and plates were incubated for 2 h at room temperature on shaking platform (setting=3). The reaction was terminated by transfer of the membrane preparation to glass fiber filters (Blue Mat #11740; 102×256 mm; Skatron Instruments, Sterling, Va.) that had been pretreated with 1% BSA in wash buffer for at least 30 min, but not longer than 1 h using a 96-well microtiter vacuum harvester (Skatron Instruments). The membrane preparation was washed with 5 cycles of ice-cold wash buffer (200 μl/well/cycle) followed by a pulse wash of 3 cycles (100 μl/well/cycle). The total wash volume per well was 1.3 mL. The filters were dried by a 10 sec aspiration. Disks corresponding to each well of the microtiter plate were punched out of the filter mat into 12×75 mm polypropylene tubes. The radioactivity present on each of the disks was measured using a gamma counter.
An FSH dose response curve (0.001, 0.01, 0.1, 1, 10, and 100 nM) was generated for each binding assay to monitor assay to assay variability.
FSH Receptor Radioligand Membrane Binding Assay Buffers and Reagents
Binding Buffer (pH 7.2): 10 mM Trizma®-HCl (Sigma)
Binding buffer was prepared in 1 l volumes containing Trizma-HCl, MgCl2, CaCl2 and sodium azide, the pH was adjusted to 7.2 with NaOH, and stored at 4° C. until use. BSA was weighed out on the day of the assay and added to the amount of buffer required for the assay (usually 150 mL). The protease inhibitors were prepared as 1 mg/mL stocks (aprotinin, leupeptin, and phosphoramidon were prepared in binding buffer without BSA and protease inhibitors; pepstatin and PMSF were prepared in methanol), stored in 1 mL aliquots at -70° C., and added to the binding buffer on the day of the assay.
Wash Buffer (pH 7.2): 50 mM Trizma®-HCl (Sigma)
Wash buffer was prepared containing Trizma-HCl, MgCl2 and EDTA, the pH was adjusted to 7.2 with NaOH, and stored at 4° C.
Filter Soak Buffer (pH 7.2): Wash Buffer
BSA was weighed out on the day of the assay and added to 300 mL of wash buffer. The filter soak buffer was used for two assays before being discarded.
A portion of the stock solution was diluted in binding buffer to a concentration of 200 pM. […]

Test [3] deals with T2, FSH receptor (Rattus norvegicus, UniProt P20395).
T2 sequence (P20395 18-692): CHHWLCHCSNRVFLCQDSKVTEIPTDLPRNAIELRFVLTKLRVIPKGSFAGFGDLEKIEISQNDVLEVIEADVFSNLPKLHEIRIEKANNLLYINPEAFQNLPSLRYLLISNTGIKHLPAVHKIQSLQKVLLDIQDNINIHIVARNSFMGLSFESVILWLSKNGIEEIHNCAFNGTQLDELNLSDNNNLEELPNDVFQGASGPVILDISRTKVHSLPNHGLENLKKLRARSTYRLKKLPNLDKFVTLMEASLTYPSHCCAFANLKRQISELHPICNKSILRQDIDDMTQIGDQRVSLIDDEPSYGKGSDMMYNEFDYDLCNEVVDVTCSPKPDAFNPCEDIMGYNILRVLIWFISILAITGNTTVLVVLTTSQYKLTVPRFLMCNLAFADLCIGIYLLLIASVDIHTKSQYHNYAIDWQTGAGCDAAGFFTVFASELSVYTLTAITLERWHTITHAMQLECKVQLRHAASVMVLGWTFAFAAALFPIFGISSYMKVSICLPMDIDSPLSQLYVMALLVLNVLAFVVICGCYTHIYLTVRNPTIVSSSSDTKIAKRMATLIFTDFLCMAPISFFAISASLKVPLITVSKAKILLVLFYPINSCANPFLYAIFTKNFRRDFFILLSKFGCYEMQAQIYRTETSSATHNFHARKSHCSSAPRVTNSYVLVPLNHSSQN
The test can be described thus: In Vitro Bioassay of Agonists and Antagonists to the FSH Receptor using Primary Cultures of Rat Granulosa (estradiol secretion). It is filed as cell-based. On the set-up: immature female Sprague-Dawley rats (Charles River Laboratories, Wilmington, Mass.) were used as donors for ovarian granulosa cells; endogenous in cells; host or cells: primary ovarian granulosa cells of immature female Sprague-Dawley rats. The note with it: antagonist mode; ED50 of FSH (0.5 ng/mL), rat granulosa cells, 72 h; read-out: IC50 (half-maximal inhibition of FSH-induced estradiol secretion).
Description: The concentration of vehicle was maintained constant throughout all dilutions.
Preparation of Granulosa Cells: Twenty-four day-old immature female Sprague-Dawley rats (Charles River Laboratories, Wilmington, Mass.) were used as donors for ovarian granulosa cells. The animals were treated by single daily injections of 100 mg/kg diethylstilbestrol (DES) in oil over three days. On the fourth day, animals were sacrificed by CO2 asphyxiation and the ovaries were removed. Ovaries were washed three times in 50 mL of sterile HEPES-buffered saline (HBS, pH 7.4). […] After the final spin, the cells were resuspended by gentle trituration in 25 mL serum-free medium, an aliquot counted in a hemocytometer and viability estimated by trypan blue exclusion. […]
Analysis of Results: Estradiol was expressed as pg/mL. […] Data were analyzed statistically by analysis of variance with Huber weighting of log transformed data. […]

In test [4] the test system is testosterone production. The note with it: rats administered suramin; in words; cited from earlier work.
Test [5] addresses T2, FSH receptor. The note with it: literature, in words; cited from earlier work.
The subject of test [6] is testosterone production. The note with it: humans administered suramin; in words; cited from earlier work.
Where [7] appears, read: antagonist mode, hFSH-induced cAMP accumulation (ED20 of FSH, […]), CHO-3D2 cells, 30 min.
[8] abbreviates: 10 μM, [125I]hFSH binding, CHO membranes with human FSH receptor.
The mark [9] stands for this setting: 100 μM, [125I]hFSH binding, CHO membranes with human FSH receptor.

Consider eight molecules from US6200963A, “Aryl sulfonic acids as FSH antagonists” (American Home Products Corporation, priority 2000, dated 2001).

Counter-ions that a name gives are not always drawn. Like-named read-outs stand apart in the source and are kept apart here.

As to `COc1ccc(N=Nc2c(S(=O)(=O)O)cc3cc(Nc4nc(Cl)nc(N(CCC(N)=O)CCC(N)=O)n4)ccc3c2O)cc1` [Example 9, 7-{4-[Bis-(2-carbamoyl-ethyl)-amino]-6-chloro-[1,3,5]-triazin-2-ylamino)-4-hydroxy-3-(4-methoxy-phenylazo)-napthalene-2-sulfonic Acid, Sodium Salt], the IC50 (as a rule, the concentration needed to halve the response being measured) in test [1] (setting [7]) turned out to be 1.4 µM; in test [2] ([125I]hFSH binding, CHO membranes with human FSH receptor, Sodium Salt) it was 5 µM; in test [2] ([125I]hFSH binding, CHO membranes with human FSH receptor, listed as 3, Sodium Salt), 6 µM; in test [3] it was 1900 nM. The % Inhibition (as a rule, the percentage by which the read-out fell short of the control) at 10 μM conc. in test [2] (10 μM, [125I]hFSH binding, CHO membranes with human FSH receptor, Sodium Salt) was determined as 66%. Besides, the inhibition (in general, the relative decrease from the control value, in per cent) at 10 µM in test [2] (setting [8]) was determined as 74%. In test [2] (100 μM, [125I]hFSH binding, CHO membranes with human FSH receptor, Sodium Salt), the “% Inhibition at 100 μM conc.” value is on record as 98%. Besides, the inhibition at 100 µM in test [2] (setting [9]) was found to be 94%.

Consider `COc1ccc(N=Nc2c(S(=O)(=O)O)cc3cc(Nc4nc(Cl)nc(N(CCO)CCO)n4)ccc3c2O)cc1` [Example 11, 7-{4-[Bis-(2-hydroxy-ethyl)-amino]-6-chloro-[1,3,5]-triazin-2-ylamino)-4-hydroxy-3-(4-methoxy-phenylazo)-napthalene-2-sulfonic Acid, Sodium Salt], for which the IC50 in test [1] (setting [7]) is 10 µM; in test [2] ([125I]hFSH binding, CHO membranes with human FSH receptor), 8.6 µM. The inhibition at 10 µM in test [2] (setting [8]) was 29%. Besides, the inhibition at 100 µM in test [2] (setting [9]) was found to be 71%.

Take `COc1ccc(N=Nc2c(S(=O)(=O)O)cc3cc(NC(=O)c4ccc(N(C)C)cc4)ccc3c2O)cc1` [Example 12, 7-(4-Dimethylamino-benzoylamino)-4-hydroxy-3-(4-methoxy-phenylazo)-napthalene-2-sulfonic Acid, Sodium Salt]: in test [2], the IC50 was 101 µM.

In test [2], `COc1ccc(N=Nc2c(S(=O)(=O)O)cc3cc(NC(=O)c4cc(OC)cc(OC)c4)ccc3c2O)cc1` [Example 14, 7-(3,5-Dimethoxy-benzoylamino)-4-hydroxy-3-(4-methoxy-phenylazo)-napthalene-2-sulfonic Acid] came in with a half-maximal inhibitory concentration (IC50) of 81 µM. Moreover, the inhibition at 10 µM in test [2] (setting [8]) was 14%. In addition, the inhibition at 100 µM in test [2] (setting [9]) came out at 60%.

In the case of `COc1ccc(N=Nc2c(S(=O)(=O)O)cc3cc(NC(=O)c4ccccc4)ccc3c2O)cc1` [Example 16, 7-Benzoylamino-4-hydroxy-3-(4-methoxy-phenylazo)-napthalene-2-sulfonic Acid], in test [2], the IC50 was 79 µM. Also, the inhibition at 10 µM in test [2] (setting [8]) came out at 11%. For the same molecule, in test [2] (setting [9]), the inhibition at 100 µM amounted to 76%.

Consider `COc1ccc(N=Nc2c(S(=O)(=O)O)cc3cc(NC(=O)c4c(OC)cccc4OC)ccc3c2O)cc1` [Example 18, 7-(2,6-Dimethoxy-benzoylamino)-4-hydroxy-3-(4-methoxy-phenylazo)-napthalene-2-sulfonic Acid], for which, in test [2] (setting [8]), the inhibition at 10 µM was determined as 10%. For the same molecule, in test [2] (setting [9]), the inhibition at 100 µM was found to be 8%.

As to `COc1ccc(N=Nc2c(S(=O)(=O)O)cc3cc(NC(=O)c4ccc(OC)c(OC)c4)ccc3c2O)cc1` [Example 19, 7-(3,4-Dimethoxy-benzoylamino)-4-hydroxy-3-(4-methoxy-phenylazo)-napthalene-2-sulfonic Acid], the IC50 amounted to 16 µM in test [1] and 14 µM in test [2]. The inhibition at 10 µM in test [2] (setting [8]) turned out to be 19%. The inhibition at 100 µM in test [2] (setting [9]) was determined as 100%.

On to `Cc1ccc(C(=O)Nc2ccc(S(=O)(=O)O)c3cc(S(=O)(=O)O)cc(S(=O)(=O)O)c23)cc1NC(=O)c1cccc(NC(=O)Nc2cccc(C(=O)Nc3cc(C(=O)Nc4ccc(S(=O)(=O)O)c5cc(S(=O)(=O)O)cc(S(=O)(=O)O)c45)ccc3C)c2)c1` [suramin], for which the testosterone production entry in test [4] and in test [6] was “decrease in testosterone production” throughout. Also, the “inhibition of FSH binding to its receptor” value in test [5] is given as “inhibit FSH binding to its receptor”.
